What all share (assay type): cell-based, human
One assay has as its system MCF-7 cell line. Kind of assay: CellTiter-Glo (CTG) luminescent cell viability assay, MCF-7 cells. Conditions: for IC50: MCF-7 estrogen receptor positive breast cancer cells, CTG viability. The protocol: (§1) This compound was evaluated against three types of cancer cells: Ishikawa, MDA-MB-231, and MCF-7 using the CellTiter-Glo (CTG) luminescent cell viability assay. Ishikawa cell line is an endometrial adenocarcinoma isolated from a person. MDA-MB-231 is a triple negative breast cancer cell line isolated from a person. MCF-7 is an estrogen receptor positive breast cancer cell line isolated from a person.

A further assay deals with Ishikawa cell line. Description: CellTiter-Glo (CTG) luminescent cell viability assay, Ishikawa cells. Conditions: for IC50: Ishikawa endometrial adenocarcinoma cells, CTG viability. Here is the method:
as §1
For orientation: ATP-based viability assays read luminescence as a measure of living cells.

For a further assay, the system named is MDA-MB-231 cell line. Kind of assay: CellTiter-Glo (CTG) luminescent cell viability assay, MDA-MB-231 cells. Conditions: for IC50: MDA-MB-231 triple negative breast cancer cells, CTG viability. The protocol: as §1

Results on two molecules are retold here after patent US10646479B2, “Use of N-(4-iodobenzoylamino)-5-ethyl-1,2,3,6-tetrahydropyridine as a treatment for cancer” (Florida A&M University, priority 2018, dated 2020).

In the case of `CCC1=CCCN(NC(=O)c2ccc(I)cc2)C1` [EH-1-40, N-(4-iodobenzoylamino)-5-ethyl-1,2,3,6-tetrahydropyridine], the IC50 (in general, the concentration needed to halve the response being measured) was 1.25 µM in the assay on MCF-7 cell line (Homo sapiens, MCF7); 2.93 µM in the assay on Ishikawa cell line (Homo sapiens); 5.67 µM in the assay with MDA-MB-231 cell line (Homo sapiens). The “activity compared to Tamoxifen and 4-Hydroxytamoxifen” value in the assay on MCF-7 cell line (MCF-7 cell line), in the assay with Ishikawa cell line (Ishikawa cell line) and with MDA-MB-231 cell line (MDA-MB-231 cell line) was “better activity” throughout.

On to 4-Hydroxytamoxifen [reference compound], for which the IC50 turned out to be 6.78 µM with MCF-7 cell line, 26.4 µM with Ishikawa cell line and 23.1 µM with MDA-MB-231 cell line.
